Read-outs that look alike come from different tables or passages of the source.
Columns and labels:
[1] = test system: Perkinsus marinus trophozoites; parameters: method as in ref [96] (a number printed in a supplementary file, which may have a reference list of its own: not looked up in the article's list); conditions: 20µM; ref [96]; cited from earlier work
[2] = test system: Entamoeba histolytica Rahman; parameters: method as in ref [87] (a number printed in a supplementary file, which may have a reference list of its own: not looked up in the article's list); conditions: read-out: Entamoeba histolytica Rahman EC50 (30 means >30); ref [87]; cited from earlier work
[3] = test system: P. falciparum NF54 GFP-Pfs16 gametocytes stage IV-V; conditions: ref [64], cited from earlier work
[4] = test system: P. falciparum NF54 gametocytes stage IV/V; assay: Gametocyte PrestoBlue resazurin assay Mancama; assay type: cell-based; conditions: Plasmodium falciparum, NF54; 5µM; read-out: NF54 gametocyte Late Stage IV/V Resazurin %inhibition
[5] = test system: primary human hepatocytes; assay: MPCC hepatotoxicity (albumin, urea, morphology); assay type: cell-based; conditions: 10µM
[6] = test system: MRC5SV2 human fibroblasts; conditions: read-out: MRC-5-Human-Fibroblasts EC50 (32000 >32µM); ref [84]; cited from earlier work
[7] = test system: P. falciparum 3D7, HB3, Dd2, W2, K1, FCR3; assay: Asexual EC50 image assay, six strains, Ayong; assay type: cell-based; conditions: Plasmodium falciparum
[8] = test system: HIV-1 JR-FL or HIV-1 NL4-3 pseudoviruses; assay: HIV-1 pseudovirus infection luciferase; assay type: cell-based
Method: Columns FK-GB, Moore group (data presented first in this paper). HIV and HIV-producing cell lines, toxicity and viral suppression. […] MMV compounds were incubated with HIV-1 JR-FL or HIV-1 NL4-3 pseudoviruses and U87-CD4-CCR5 or U87-CD4-CXCR4 cells (obtained through the NIH AIDS Reagent Program, Division of AIDS, NIAID, NIH: U87 CD4+CCR5+ Cells from Dr. HongKui Deng and Dr. Dan R. Littman) respectively for 3 days. Cells were assayed for infection by luciferase production (Bright-Glo Luciferase Substrate, Promega) and cell viability by MTT assay. […] MMV compounds were next incubated with HIV-1 JR-FL or HIV-1 NL4-3 viruses and U87-CD4-CCR5 or U87-CD4-CXCR4 cells respectively for 7 days. Cell supernatants were assayed for viral production by p24 ELISA [153] and cell viability by MTT assay. […] DMSO (5%) was completely toxic to all cells (based on visual inspection) and served as the positive control for MTT assays.

[9] = test system: P. falciparum NF54 GFP-Pfs16 gametocytes stage I-III; conditions: ref [64], cited from earlier work
[10] = test system: Saccharomyces cerevisiae strain JHY222; assay: S. cerevisiae JHY222 growth in three media; assay type: cell-based; conditions: 100µM
Method: Columns EB-ED: St. Onge group (data presented first in this paper). Growth inhibition of S. cerevisiae: The effects of Malaria Box compounds on the growth of yeast (Saccharomyces cerevisiae) were quantified as described previously. We employed the prototrophic yeast strain JHY222, a derivative of BY4743 in which auxotrophic markers have been repaired. Growth was measured in three different growth media: rich medium using dextrose as a carbon source, minimal medium using dextrose as a carbon source, or minimal medium using ethanol and glycerol as carbon sources. Compounds affecting growth in a media-specific manner may represent inhibitors of key metabolic pathways. For example, the antifolate drug methotrexate was previously shown to inhibit yeast growth far more potently in minimal medium compared to rich medium.

[11] = Plasma protein binding human; assay type: in vitro ADME
Method: Columns GD-GJ: Wuxi Inc. data for MMV (data presented first in this paper) PK/DMPK Parameters: Fasted animals (Male CD-1 mouse, 7-9 weeks age, 30±10 g, n=3) obtained from an approved vendor (SLAC Laboratory Animal Co. Ltd., Shanghai, China or Sino-British SIPPR/BK Laboratory Animal Co. Ltd Shanghai, China) were administered with a single oral dose (140 μmol/kg) using DMSO: 1% HPMC (5:95) as a vehicle. Blood sampling was performed via the submandibular or saphenous vein (t=0.083, 0.25, 1, 2, 4, 6 and 9 h) and transferred into microcentrifuge tubes containing Sodium Heparin (1,000 IU/ml) as anti-coagulant placed on wet ice until processed for plasma by centrifugation at approximately 4°C, 3000×g for 15 min. Plasma samples were stored in polypropylene tubes, quick frozen over dry ice and kept at -70±10°C until LC/MS/MS analysis. LC/MS/MS methods for the quantitative determination compounds plasma levels were developed with an internal standard. […] (Phoenix WinNonlin, version 6.2.1, Pharsight, Mountain View, CA) and expressed as Cmax & AUC0-last. […] AUC0-last is the area under the curve expressed as >12 h*μM (Yes or No). Plasma protein binding assay (PPB) (CD-1 mouse and human) expressed as <95% bound, >95% bound, or >99% bound. Kinetic Solubility at pH 7.4 was determined by liquid chromatography/chemiluminescence nitrogen detection (LC/CLND) and was scored as greater than 20µM (Yes or No). hERG inhibition was measured at 11µM by the QPatch- HT system and is expressed as “Yes” if greater than 45% inhibited at 11µM and “No” if less than or equal to 45% inhibited at 11µM. As part of the Drug-Drug Interaction studies (DDI issues), 5 human and 1 mouse CYP isoforms (1A2, 2C9, 2C19, 2D6, 3A4-M, 3A4-T) were tested for inhibition assay at 10 µM. […] Otherwise DDI issues were scored as “No”. Positive and negative controls were run for each assay (Table 1).

[12] = read-out: P. falciparum 3D7 asexual blood stage EC50 (Image) Ayong
[13] = read-out: P. falciparum Dd2 asexual blood stage EC50 (Image) Ayong
[14] = read-out: P. falciparum FCR3 asexual blood stage EC50 (Image) Ayong
[15] = read-out: P. falciparum HB3 asexual blood stage EC50 (Image) Ayong
[16] = read-out: P. falciparum K1 asexual blood stage EC50 (Image) Ayong
[17] = read-out: P. falciparum W2 asexual blood stage EC50 (Image) Ayong
[18] = Human immunodeficiency virus 1, NL43, read-out: HIV JRFL % inhibition rep1 in U87 Luc
[19] = Human immunodeficiency virus 1, NL43, read-out: HIV JRFL % inhibition rep2 in U87 Luc
[20] = Human immunodeficiency virus 1, NL43, read-out: HIV NL4-3 % inhibition rep1 in U87 Luc

Row | SMILES | Perkinsus marinus % growth [1] | EC50 [2] | gametocyte late stage (IV-V) GFP-MTR % inhibition ([3]; 0.5µM) | gametocyte late stage (IV-V) GFP-MTR % inhibition ([3]; 5µM) | inhibition at 5 µM [4] | Human hepatocyte Urea synthesis, 1.0 normal [5] | Human hepatocyte albumin synthesis, 1.0 normal [5] | EC50 [6] | EC50 [7, 12] | EC50 [7, 13] | EC50 [7, 15] | inhibition at 5 µM [8, 18] | inhibition at 5 µM [8, 19] | inhibition at 5 µM [8, 20] | gametocyte early stage (I-III) GFP-MTR % inhibition ([9]; 0.5µM) | gametocyte early stage (I-III) GFP-MTR % inhibition ([9]; 5µM) | S. cerevisiae jhy222 in YNBD medium growth compared with DMSO control [10] | S. cerevisiae jhy222 in YNBEG medium growth compared with DMSO control [10] | S. cerevisiae jhy222 in YPD medium growth compared with DMSO control [10] | fraction unbound [11] | also measured
1 | CCN(CC)c1cc(C)c2cc(NC(=O)c3cccc(OC)c3)ccc2n1 [MMV000498] | 74% | > 30000 nM | -0.167% | 87% | 70% | 0.65 | 0.57 | 15300 nM | 1800 nM | 2450 nM | 2800 nM | -9% | 52% | 15% | 15% | 16% | -0.05 | 0.14 | -0.0562 | < 0.01 | EC50 [7, 14]: 4560 nM; EC50 [7, 16]: 3530 nM; EC50 [7, 17]: 2740 nM
2 | COc1cc2cc(C(=O)Nc3ccccc3)c(N)nc2cc1OC [MMV006767] | 44% | > 30000 nM | 3% | -13% | 0% | 1.00 | 0.82 | > 32000 nM | 592 nM | 357 nM | 812 nM | 93% | 64% | 96% | 17% | 99% | -0.11 | -0.49 | -0.0536 | > 0.05 | EC50 [7, 14]: 931 nM; EC50 [7, 16]: 1490 nM; EC50 [7, 17]: 797 nM
3 | CCN1CCN(c2cc(C)c3cc(NC(=O)c4ccc(OC)c(OC)c4)ccc3n2)CC1 [MMV019074] | 92% | > 30000 nM | -6.56% | 4% | 64% | 0.58 | 0.51 | 5460 nM | 904 nM | 1270 nM | 1500 nM | 11% | -62% | 13% | 11% | 14% | 0.0025 | -0.0049 | -0.0537 | > 0.05 | EC50 [7, 14]: 2610 nM; EC50 [7, 16]: 1320 nM; EC50 [7, 17]: 2950 nM
4 | COc1ccc(C(=O)Nc2ccc3nc(N4CCCCC4)cc(C)c3c2)cc1OC [MMV019758] | 101% | > 30000 nM | 3.3% | 51% | 18% | 0.66 | 0.58 | 16400 nM | 1600 nM | 3290 nM | 3440 nM | 4.56% | -50% | 7% | -8% | 8% | 0.0051 | 0.20 | 0.0044 | < 0.01 | EC50 [7, 17]: 4470 nM
5 | CCOC(=O)c1cnc2ccc(OC)cc2c1NCc1ccccc1 [MMV665813] | 69% | > 30000 nM | 10% | 2% | 0% | 0.81 | 0.93 | > 32000 nM |  | 3320 nM |  | -33% | -10% | -135% | 26% | 17% | -0.13 | -0.06 | 0.0021 | < 0.01 | 

Reference: paper PMC4965013, “Open Source Drug Discovery with the Malaria Box Compound Collection for Neglected Diseases and Beyond” (PLoS Pathogens, 2016)
